Experimental data reported in patent US7265152B2 (ViroPharma Incorporated, priority 2002, dated 2007).
pEC50, pIC50: −log10 of the molar value. Where two headings read alike, the source gives them in different places.

How the values were obtained:
[1] = tested on: HCV replicon (BB7 sequence) in Huh-7-Clone A cells; test: HCV replicon assay: ELISA of NS5A protein in replicon-containing cells (Inhibition of Viral RNA Replication); assay type: cell-based; settings: Hepatitis C virus; for pEC50: read-out: Replicon
How it was run: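 Huh-7-Clone A cells carrying subgenomic BB7 HCV replicon (G418-selectable) incubated 72 h with compound. NS5A protein quantified by cell ELISA: glutaraldehyde fixation, anti-NS5A monoclonal plus HRP secondary, TMB read at OD 650 nm. EC50 derived from 8-point serial dilution dose curve.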

HCV NS5B = target: T1, HCV NS5B (Hepatitis C virus genotype 1b, UniProt Q9WMX2); test: Inhibition of viral RNA-dependent RNA polymerase (RdRp), in vitro biochemical assay; design: species or system HCV genotype 1b virus (BB7); settings: read-out: HCV pol-BB7 IC50
T1 construct: fusion protein, of which the carboxyl terminal 21 amino acids were removed to enhance its solubility; His tag (GSHHHHHH); made in house; host or cells: E. coli
How it was run: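 Purified recombinant NS5B from a genotype 1b consensus (BB7), His-tagged, E. coli-expressed, with the C-terminal 21 residues deleted. Inhibition of RdRp activity in vitro was measured, and IC50 is the concentration giving 50% inhibition.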

[2] = HCV replicon assay, ranges of EC50
[3] = HCV NS5B RdRp, BB7, activity class
[4] = HCV NS5B RdRp, BB7, reported as range class
[5] = HCV NS5B RdRp, BB7, class symbols A-D
[6] = ranges of EC50 in HCV replicon assay
[7] = Huh-7-Clone A, NS5A ELISA, 72-hour incubation, ranges of EC50
[8] = purified His-tagged NS5B (BB7), carboxyl terminal 21 amino acids removed
[9] = HCV replicon assay, ranges of 50% effective concentration (EC50)
[10] = HCV NS5B polymerase, BB7 (genotype 1b), values given as range classes A-D

## CNC(=O)c1c(-c2ccc(F)cc2)oc2cc(C3CCCN3C(N)=O)c(OC)cc12 (stereo not shown) [Example 368, 2-[2-(4-Fluoro-phenyl)-5-methoxy-3-methylcarbamoyl-benzofuran-6-yl]-pyrrolidine-1-carboxylic acid amide]
[1]; [2]
  pEC50: > 6.00
HCV NS5B; [3]
  pIC50: ≥ 6.30

## CNC(=O)c1c(-c2ccc(F)cc2)oc2cc(N3CCOCC3)c(OCc3cc(C)on3)cc12 [Example 218, 2-(4-Fluoro-phenyl)-5-(5-methyl-isoxazol-3-ylmethoxy)-6-morpholin-4-yl-benzofuran-3-carboxylic acid methylamide]
[1]; HCV replicon, range of EC50
  pEC50: > 6.00
HCV NS5B; [4]
  pIC50: ≥ 6.30

## CNC(=O)c1c(-c2ccc(F)cc2)oc2cc(N3CCOCC3)c(OCc3ccc4c(c3)C(=O)OC(C)(C)O4)cc12 [Example 293]
[1]; read-out: Replicon (μM)
  EC50: < 10 µM
HCV NS5B; [5]
  pIC50: 5.30 to 6.30

## CCOC(=O)c1csc(CN(c2cc3oc(-c4ccc(F)cc4)c(C(=O)NC)c3cc2OC(C)C)S(C)(=O)=O)n1 [Example 286, 2-({[2-(4-Fluoro-phenyl)-5-isopropoxy-3-methylcarbamoyl-benzofuran-6-yl]-methanesulfonylamino}-methyl)-thiazole-4-carboxylic acid ethyl ester]
[1]; [2]
  pEC50: > 5.00
HCV NS5B; [5]
  pIC50: ≥ 6.30

## CNC(=O)c1c(-c2ccc(F)cc2)oc2cc(S(N)(=O)=O)c(OC(C)C)cc12 [Example 149, 2-(4-Fluoro-phenyl)-5-isopropoxy-6-sulfamoyl-benzofuran-3-carboxylic acid methylamide]
[1]; [6]
  pEC50: < 4.52
HCV NS5B; HCV NS5B RdRp, BB7 genotype 1b
  pIC50: 4.52 to 5.30

## CNC(=O)c1c(-c2ccc(F)cc2)oc2cc(NS(C)(=O)=O)ccc12 [Example 243, 2-(4-Fluoro-phenyl)-6-methanesulfonylamino-benzofuran-3-carboxylic acid methylamide]
[1]; HCV replicon, range of EC50
  pEC50: > 5.00
HCV NS5B; [4]
  pIC50: 5.30 to 6.30

## CNC(=O)c1c(-c2ccc(F)cc2)oc2cc(-c3c(C)noc3C)c(OC(C)C)cc12 [Example 159, 6-(3,5-Dimethyl-isoxazol-4-yl)-2-(4-fluoro-phenyl)-5-isopropoxy-benzofuran-3-carboxylic acid methylamide]
[1]; [6]
  pEC50: > 6.00
HCV NS5B; HCV NS5B RdRp, BB7 genotype 1b
  pIC50: ≥ 6.30

## CNC(=O)c1c(-c2ccc(F)cc2)oc2cc(N(Cc3ccc(C(=O)O)cc3)S(C)(=O)=O)c(OC(C)C)cc12 [Example 272, 4-({[2-(4-Fluoro-phenyl)-5-isopropoxy-3-methylcarbamoyl-benzofuran-6-yl]-methanesulfonyl-amino}-methyl)-benzoic acid]
[1]; [2]
  pEC50: ≥ 6.00
HCV NS5B; [5]
  pIC50: ≥ 6.30

## CCc1cc2c(C(=O)NC)c(-c3ccc(F)cc3)oc2cc1C(C)(C)O [Example 339, 5-Ethyl-2-(4-fluoro-phenyl)-6-(1-hydroxy-1-methyl-ethyl)-benzofuran-3-carboxylic acid methylamide]
[1]; [2]
  pEC50: > 6.00
HCV NS5B; [3]
  pIC50: ≥ 6.30

## CNC(=O)c1c(-c2ccccc2)oc2cc(C)c(OC)cc12 [Example 14, 5-Methoxy-6-methyl-2-phenyl-benzofuran-3-carboxylic acid methylamide]
[1]; [7]
  pEC50: > 6.00
HCV NS5B; [8]
  pIC50: ≥ 6.30

## CNC(=O)c1c(-c2ccc(F)cc2)oc2cc(C(C)(C)N)c(OC(C)C)cc12 [Example 376, 6-(1-Amino-1-methyl-ethyl)-2-(4-fluoro-phenyl)-5-isopropoxy-benzofuran-3-carboxylic acid methylamide]
[1]; [2]
  pEC50: > 6.00
HCV NS5B; [3]
  pIC50: ≥ 6.30

## CNC(=O)c1c(-c2ccc(F)cc2)oc2cc(N(C)S(C)(=O)=O)c(OCc3nccs3)cc12 [Example 388, 2-(4-Fluoro-phenyl)-6-(methanesulfonyl-methyl-amino)-5-(thiazol-2-ylmethoxy)-benzofuran-3-carboxylic acid methylamide]
[1]; [9]
  pEC50: > 6.00
HCV NS5B; [10]
  pIC50: ≥ 6.30

## CNC(=O)c1c(-c2ccccc2)oc2ccc(CO)cc12 [Example 118, 5-Hydroxymethyl-2-phenyl-benzofuran-3-carboxylic acid methylamide]
[1]; [6]
  pEC50: < 4.00
HCV NS5B; HCV NS5B RdRp, BB7 genotype 1b
  pIC50: 4.52 to 5.30

## CNC(=O)c1c(-c2ccc(F)cc2)oc2cc(CN(C)C)c(OC(C)C)cc12 [Example 237, 6-Dimethylaminomethyl-2-(4-fluoro-phenyl)-5-isopropoxybenzofuran 3-carboxylic acid methylamide]
[1]; HCV replicon, range of EC50
  pEC50: > 4.52
HCV NS5B; [4]
  pIC50: 4.52 to 5.30

## CNC(=O)c1c(-c2ccc(F)cc2)oc2cc(N)c(OC(C)C)cc12 [Example 16, 6-Amino-2-(4-fluoro-phenyl)-5-isopropoxy-benzofuran-3-carboxylic acid methylamide]
[1]; [7]
  pEC50: > 5.00
HCV NS5B; [8]
  pIC50: ≥ 6.30

## CNC(=O)c1c(-c2ccc(F)cc2)oc2cc(C(=O)O)c(OC(C)C)cc12 [Example 187, 2-(4-Fluoro-phenyl)-5-isopropoxy-3-methylcarbamoyl-benzofuran-6-carboxylic acid]
[1]; HCV replicon, range of EC50
  pEC50: > 5.00
HCV NS5B; [4]
  pIC50: 4.52 to 5.30

## CNC(=O)c1c(-c2ccc(F)cc2)oc2cc(C(C)(C)O)c(OC)cc12 [Example 49, 2-(4-Fluoro-phenyl)-6-(1-hydroxy-1-methyl-ethyl)-5-methoxy-benzofuran-3-carboxylic acid methylamide]
[1]; [7]
  pEC50: > 6.00
HCV NS5B; [8]
  pIC50: ≥ 6.30

## CNC(=O)c1c(-c2ccc(F)cc2)oc2cc(-c3c(C)noc3C)c(OCc3cscn3)cc12 [Example 401, 6-(3,5-Dimethyl-isoxazol-4-yl)-2-(4-fluoro-phenyl)-5-(thiazol-4-ylmethoxy)-benzofuran-3-carboxylic acid methylamide]
[1]; [9]
  pEC50: > 6.00
HCV NS5B; [10]
  pIC50: ≥ 6.30

## CNC(=O)c1c(-c2ccc(F)cc2)oc2cc(N(C)S(C)(=O)=O)c(OCc3nnnn3C)cc12 [Example 371, 2-(4-Fluoro-phenyl)-6-(methanesulfonyl-methyl-amino)-5-(1-methyl-1H-tetrazol-5-ylmethoxy)-benzofuran-3-carboxylic acid methylamide]
[1]; [2]
  pEC50: > 6.00
HCV NS5B; [3]
  pIC50: ≥ 6.30

## CNC(=O)c1c(-c2ccc(F)cc2)oc2cc(N3CCOCC3)c(OCc3noc(C(C)(C)C)n3)cc12 [Example 204, 5-(5-tert-Butyl-[1,2,4]oxadiazol-3-ylmethoxy)-2-(4-fluoro-phenyl)-6-morpholin-4-yl-benzofuran-3-carboxylic acid methylamide]
[1]; HCV replicon, range of EC50
  pEC50: > 6.00
HCV NS5B; [4]
  pIC50: ≥ 6.30

## CNC(=O)c1c(-c2ccc(OC)cc2)oc2ccc(OC)cc12 [Example 54, 5-Methoxy-2-(4-methoxy-phenyl)-benzofuran-3-carboxylic acid methylamide]
[1]; [7]
  pEC50: > 5.00
HCV NS5B; [8]
  pIC50: 5.30 to 6.30

## CNC(=O)c1c(-c2ccc(F)cc2)oc2cc(OC)c(OC(C)C)cc12 [Example 158, 2-(4-Fluoro-phenyl)-5-isopropoxy-6-methoxy-benzofuran-3-carboxylic acid methylamide]
[1]; [6]
  pEC50: > 5.00
HCV NS5B; HCV NS5B RdRp, BB7 genotype 1b
  pIC50: ≥ 6.30

## CNC(=O)c1c(-c2ccc(F)cc2)oc2cc(N(C)S(C)(=O)=O)c(OCc3nc(C(=O)O)cs3)cc12 [Example 393, 2-[2-(4-Fluoro-phenyl)-6-(methanesulfonyl-methyl-amino)-3-methylcarbamoyl-benzofuran-5-yloxymethyl]-thiazole-4-carboxylic acid]
[1]; [9]
  pEC50: < 4.52
HCV NS5B; [10]
  pIC50: ≥ 6.30

## CNC(=O)c1c(-c2cc(F)c(F)cc2F)oc2ccc(OC)cc12 [Example 62, 5-Methoxy-2-(2,4,5-trifluoro-phenyl)-benzofuran-3-carboxylic acid methylamide]
[1]; [7]
  pEC50: > 4.52
HCV NS5B; [8]
  pIC50: 4.52 to 5.30

## CNC(=O)c1c(-c2ccc(F)cc2)oc2cc(-c3ccc(S(C)(=O)=O)cc3)c(OC(C)C)cc12 [Example 179, 2-(4-Fluoro-phenyl)-5-isopropoxy-6-(4-methanesulfonyl-phenyl)-benzofuran-3-carboxylic acid methylamide]
[1]; HCV replicon, range of EC50
  pEC50: > 5.00
HCV NS5B; [4]
  pIC50: ≥ 6.30

## CNC(=O)c1c(-c2ccc(F)cc2)oc2ccc(OC)cc12 [Example 12, 2-(4-Fluoro-phenyl)-5-methoxy-benzofuran-3-carboxylic acid methylamide]
[1]; [7]
  pEC50: > 5.00
HCV NS5B; [8]
  pIC50: ≥ 6.30

## C=CCN(c1cc2oc(-c3ccc(F)cc3)c(C(=O)NC)c2cc1OC(C)C)S(C)(=O)=O [Example 195, 6-(Allyl-methanesulfonyl-amino)-2-(4-fluoro-phenyl)-5-isopropoxy-benzofuran-3-carboxylic acid methylamide]
[1]; HCV replicon, range of EC50
  pEC50: > 6.00
HCV NS5B; [4]
  pIC50: ≥ 6.30

## CNC(=O)c1c(-c2ccc(F)cc2)oc2cc(N(C)S(C)(=O)=O)c(OCc3ccc4c(c3)OC(C)(C)OC4=O)cc12 [Example 302, 5-(2,2-Dimethyl-4-oxo-4H-benzo[1,3]dioxin-7-ylmethoxy)-2-(4-fluoro-phenyl)-6-(methanesulfonyl-methyl-amino)-benzofuran-3-carboxylic acid methylamide]
[1]; [2]
  pEC50: > 6.00
HCV NS5B; [5]
  pIC50: ≥ 6.30

## CNC(=O)c1c(-c2ccc(F)cc2)oc2cc(-c3cccnc3)c(OC)cc12 [Example 236, 2-(4-Fluoro-phenyl)-5-methoxy-6-pyridin-3-yl-benzofuran-3-carboxylic acid methylamide]
[1]; HCV replicon, range of EC50
  pEC50: > 6.00
HCV NS5B; [4]
  pIC50: ≥ 6.30
